In patent US20120077673A1, “Fungicidal Compositions and Methods of Use” (priority 2010, published 2012):

Assays:
Type in all cases: in vivo
Pythium [1] = assay: Cucumber field trial, Pythium-infected seeds, seed treatment, control or Pythium-inoculated soil (Example 3); parameters: Density: unit not given here
Source text: The seeds were planted in a field, either in soil that had been inoculated with Pythium (Soil Inoc. with Pythium), or in soil that had not been inoculated with Pythium (Ctrl.), then allowed to grow. Concentrations and compositions of triadimenol, metalaxyl, and saponin are the same as given in Example 1. For cucumber, the industry standard dosage of metalaxyl is 15.5 grams of active ingredient per 100 kilograms of seed (15.5 GA/100 Kg). […] The data of TABLE 3 are shown graphically in FIG. 3. The relative densities for the data of TABLE 3 and FIG. 3 were calculated with reference to the 31 GA/100 Kg metalaxyl category. As shown by TABLE 3 and FIG. 3, inoculation of the soil with Pythium was correlated with a general decrease in cucumber seedling count, density, and relative density (compare Ctrl. versus Inoc.).

Pythium [2] = assay: Corn hybrids greenhouse trial, Pythium-infected seeds, seed treatment (Example 4)
Source text: Concentrations and compositions of triadimenol, metalaxyl, and saponin are the same as given in Example 1. The data of TABLE 4 are shown graphically in FIGS. 4A and 4B. As shown by TABLE 4 and FIGS. 4A and 4B, pre-treatment of both varieties of corn seeds with 1 GA/100 Kg metalaxyl and 0.6 GA/100 Kg yielded counts similar to those achieved from pre-treatment of seeds with either 2 GA/100 Kg metalaxyl (the industry standard dose for corn) or 7.5 GA/100 Kg metalaxyl.

Pythium [3] = assay: Cotton field trial, Pythium-infected seeds, seed treatment, control or Pythium-inoculated soil (Example 2)
Source text: The seeds were planted in a field, either in soil that had been inoculated with Pythium (Soil Inoc. with Pythium), or in soil that had not been inoculated with Pythium (Ctrl.), then allowed to grow. Concentrations and compositions of triadimenol, metalaxyl, and saponin are the same as given in Example 1. For cotton, the industry standard dosage of metalaxyl is 15.5 grams of active ingredient per 100 kilograms of seed (15.5 GA/100 Kg). […] The data of TABLE 2 are shown graphically in FIG. 2. The relative densities for the data of TABLE 2 and FIG. 2 were calculated with reference to the 15.5 GA/100 Kg metalaxyl category. As shown by TABLE 2 and FIG. 2, inoculation of the soil with Pythium was correlated with a general decrease in cotton seedling count and density (compare Ctrl. versus Inoc.).

Pythium ultimum = assay: Cotton varieties greenhouse trial, metalaxyl-resistant Pythium ultimum (Example 5)
Source text: Two different varieties of cotton seedlings (Variety A, and Variety B) that were infected with Pythium ultimum were exposed to various rates of metalaxyl, saponins, or metalaxyl+Saponin, and then allowed to grow in a greenhouse to determine whether the effects observed in the field could be reproduced in a greenhouse setting. This particular strain of Pythium ultimum was shown previously to have a mid-degree of resistance to seed treatments containing metalaxyl and/or L-metalaxyl. […] The stand counts from Variety B show a similar trend with the 1 GA/100 Kg rate of metalaxyl (see FIG. 5B).

Pythium [4] = assay: Corn field trial, Pythium-infected seeds, seed treatment, soil not inoculated (Example 1); parameters: Density: unit not given here; details: for Vigor: subjective score, lower more favorable
Source text: Unlike other experiments disclosed herein, the soil for the experiment of EXAMPLE 1 was not inoculated with Pythium. Uninfected untreated, and Pythium-infected untreated seeds served as controls. Triadimenol, 15% w/v, is a systemic broad-spectrum fungicide used for cereal seed treatment, but has no activity against Pythium spp. Metalaxyl, 28.35% w/v, provides systemic protection for the seed, roots, and emerging plants against Pythium, systemic downy mildew, and Phytophthora. For corn, the industry standard dosage of metalaxyl is 2 grams of active ingredient per 100 kilograms of seed (2 GA/100 Kg). Saponin, 49.65% v/v extract of Chenopodium quinoa saponins, contained approximately equimolar amounts of triterpene bidesmosidic glycosides of oleanolic acid, hederagenin, and phytolaccagenic acid. […] In TABLE 1, “Vigor” represents a subjective measure of plant health and is based on uniformity, consistent plant mass, and consistent plant spacing, with lower scores being more favorable than higher scores. The data of TABLE 1 are shown graphically in FIGS. 1A and 1B. As shown by TABLE 1 and FIGS. 1A and 1B, the count and the density increased—over time—for all treatment conditions. The relative density, however, decreased over time for the […] and metalaxyl (2 GA/100 kg) categories. The relative density remained the same for the untreated/uninfected category because it provided the reference point (i.e., the relative densities were calculated with reference to the untreated/uninfected category).

[5] = Metalaxyl 15.5 GA/100 Kg, 18 DAA, Ctrl. soil
[6] = Metalaxyl 15.5 GA/100 Kg, 18 DAA, Soil Inoc. with Pythium
[7] = Metalaxyl 15.5 GA/100 Kg, 33 DAA, Ctrl. soil
[8] = Metalaxyl 31 GA/100 Kg, 18 DAA, Ctrl. soil
[9] = Metalaxyl 31 GA/100 Kg, 18 DAA, Soil Inoc. with Pythium
[10] = Metalaxyl 31 GA/100 Kg, 33 DAA, Ctrl. soil
[11] = Metalaxyl 31 GA/100 Kg, 33 DAA, Soil Inoc. with Pythium
[12] = Metalaxyl 7.5 GA/100 Kg, Day 14
[13] = Metalaxyl 15.5 GA/100 Kg, 34 DAA, Ctrl. soil
[14] = Metalaxyl 15.5 GA/100 Kg, 34 DAA, Soil Inoc. with Pythium
[15] = Metalaxyl 15.5 GA/100 Kg, 46 DAA, Ctrl. soil
[16] = Metalaxyl 15.5 GA/100 Kg, 46 DAA, Soil Inoc. with Pythium
[17] = Metalaxyl 31 GA/100 Kg, 34 DAA, Ctrl. soil
[18] = Metalaxyl 31 GA/100 Kg, 34 DAA, Soil Inoc. with Pythium
[19] = Metalaxyl 31 GA/100 Kg, 46 DAA, Ctrl. soil
[20] = Metalaxyl 31 GA/100 Kg, 46 DAA, Soil Inoc. with Pythium
[21] = Metalaxyl 7.5 GA/100 Kg, 30 DAA
[22] = Metalaxyl 7.5 GA/100 Kg, 46 DAA
[23] = Triadimenol 30 GA/100 Kg, 18 DAA, Ctrl. soil
[24] = Triadimenol 30 GA/100 Kg, 18 DAA, Soil Inoc. with Pythium
[25] = Triadimenol 30 GA/100 Kg, 33 DAA, Ctrl. soil
[26] = Triadimenol 30 GA/100 Kg, 33 DAA, Soil Inoc. with Pythium
[27] = Triadimenol 30 GA/100 Kg, Day 2
[28] = Triadimenol 30 GA/100 Kg, Day 7
[29] = Triadimenol 30 GA/100 Kg, Day 14
[30] = Triadimenol 30 GA/100 Kg, 34 DAA, Ctrl. soil
[31] = Triadimenol 30 GA/100 Kg, 34 DAA, Soil Inoc. with Pythium
[32] = Triadimenol 30 GA/100 Kg, 46 DAA, Ctrl. soil
[33] = Triadimenol 30 GA/100 Kg, 46 DAA, Soil Inoc. with Pythium
[34] = Triadimenol 30 GA/100 Kg, 30 DAA
[35] = Triadimenol 30 GA/100 Kg, 46 DAA

## COCC(=O)N(c1c(C)cccc1C)C(C)C(=O)OC (stereo not drawn) [Metalaxyl]
Pythium [1]; [5]
  Count: 42.5
  Density: 85
  Relative Density: 121.4
Pythium [1]; [6]
  Count: 26
  Density: 52
  Relative Density: 89.7
Pythium [1]; [7]
  Count: 41.8
  Density: 83.5
  Relative Density: 122.8
Pythium [1]; Metalaxyl 31 GA/100 Kg (reference), 18 DAA, Ctrl. soil
  Relative Density: 100
Pythium [1]; Metalaxyl 31 GA/100 Kg (reference), 18 DAA, Soil Inoc. with Pythium
  Relative Density: 100
Pythium [1]; Metalaxyl 31 GA/100 Kg (reference), 33 DAA, Ctrl. soil
  Relative Density: 100
Pythium [1]; [8]
  Count: 35
  Density: 70
Pythium [1]; [9]
  Count: 29
  Density: 58
Pythium [1]; [10]
  Count: 34
  Density: 68
Pythium [1]; [11]
  Count: 8.3
  Density: 16.5
  Relative Density: 31.4
Pythium [2]; Metalaxyl 2 GA/100 Kg, Day 2
  Count, Hybrid A: 92
  Count, Hybrid B: 74
Pythium [2]; Metalaxyl 2 GA/100 Kg, Day 7
  Count, Hybrid A: 98
  Count, Hybrid B: 88
Pythium [2]; Metalaxyl 2 GA/100 Kg, Day 14
  Count, Hybrid A: 98
  Count, Hybrid B: 88
Pythium [2]; Metalaxyl 7.5 GA/100 Kg, Day 2
  Count, Hybrid A: 94
  Count, Hybrid B: 64
Pythium [2]; Metalaxyl 7.5 GA/100 Kg, Day 7
  Count, Hybrid A: 96
  Count, Hybrid B: 94
Pythium [2]; [12]
  Count, Hybrid A: 96
  Count, Hybrid B: 98
Pythium [3]; Metalaxyl 15.5 GA/100 Kg (reference), 34 DAA, Ctrl. soil
  Relative Density: 100
Pythium [3]; Metalaxyl 15.5 GA/100 Kg (reference), 34 DAA, Soil Inoc. with Pythium
  Relative Density: 100
Pythium [3]; Metalaxyl 15.5 GA/100 Kg (reference), 46 DAA, Ctrl. soil
  Relative Density: 100
Pythium [3]; Metalaxyl 15.5 GA/100 Kg (reference), 46 DAA, Soil Inoc. with Pythium
  Relative Density: 100
Pythium [3]; [13]
  Count: 37
  Density: 74
Pythium [3]; [14]
  Count: 25
  Density: 50
Pythium [3]; [15]
  Count: 37.5
  Density: 75
Pythium [3]; [16]
  Count: 24.5
  Density: 49
Pythium [3]; [17]
  Count: 38
  Density: 76
  Relative Density: 102.7
Pythium [3]; [18]
  Count: 26.5
  Density: 53
  Relative Density: 106
Pythium [3]; [19]
  Count: 37
  Density: 74
  Relative Density: 98.7
Pythium [3]; [20]
  Count: 24.5
  Density: 49
  Relative Density: 100
Pythium ultimum; Metalaxyl 1 GA/100 Kg, Day 6
  Count, Variety A: 76
  Count, Variety B: 77
Pythium ultimum; Metalaxyl 1 GA/100 Kg, Day 14
  Count, Variety A: 57
  Count, Variety B: 26
Pythium ultimum; Metalaxyl 1 GA/100 Kg, Day 19
  Count, Variety A: 24
  Count, Variety B: 5
Pythium ultimum; Metalaxyl 5 GA/100 Kg, Day 6
  Count, Variety A: 70
  Count, Variety B: 94
Pythium ultimum; Metalaxyl 5 GA/100 Kg, Day 14
  Count, Variety A: 73
  Count, Variety B: 84
Pythium ultimum; Metalaxyl 5 GA/100 Kg, Day 19
  Count, Variety A: 49
  Count, Variety B: 45
Pythium ultimum; Metalaxyl 10 GA/100 Kg, Day 6
  Count, Variety A: 73.75
  Count, Variety B: 83
Pythium ultimum; Metalaxyl 10 GA/100 Kg, Day 14
  Count, Variety A: 77.5
  Count, Variety B: 85
Pythium ultimum; Metalaxyl 10 GA/100 Kg, Day 19
  Count, Variety A: 72.5
  Count, Variety B: 68
Pythium ultimum; Metalaxyl 15 GA/100 Kg, Day 6
  Count, Variety A: 60
  Count, Variety B: 83
Pythium ultimum; Metalaxyl 15 GA/100 Kg, Day 14
  Count, Variety A: 81.25
  Count, Variety B: 80
Pythium ultimum; Metalaxyl 15 GA/100 Kg, Day 19
  Count, Variety A: 36.25
  Count, Variety B: 62
Pythium [4]; Metalaxyl 2 GA/100 Kg, 30 DAA
  Count: 37
  Density: 46.6
  Relative Density: 124.2
Pythium [4]; Metalaxyl 2 GA/100 Kg, 46 DAA
  Count: 73
  Density: 90.9
  Relative Density: 117.8
  Vigor: 3.75
Pythium [4]; [21]
  Count: 34
  Density: 42.8
  Relative Density: 114.2
Pythium [4]; [22]
  Count: 73
  Density: 91.6
  Relative Density: 118.6
  Vigor: 3.5

## CC(C)(C)C(O)C(Oc1ccc(Cl)cc1)n1cncn1 (stereo not drawn) [Triadimenol]
Pythium [1]; [23]
  Count: 28
  Density: 56
  Relative Density: 80
Pythium [1]; [24]
  Count: 10
  Density: 20
  Relative Density: 34.5
Pythium [1]; [25]
  Count: 28.3
  Density: 56.5
  Relative Density: 83.1
Pythium [1]; [26]
  Count: 4.3
  Density: 8.5
  Relative Density: 16.2
Pythium [2]; [27]
  Count, Hybrid A: 62
  Count, Hybrid B: 24
Pythium [2]; [28]
  Count, Hybrid A: 72
  Count, Hybrid B: 40
Pythium [2]; [29]
  Count, Hybrid A: 74
  Count, Hybrid B: 40
Pythium [3]; [30]
  Count: 39.5
  Density: 79
  Relative Density: 106.8
Pythium [3]; [31]
  Count: 18.3
  Density: 36.5
  Relative Density: 73
Pythium [3]; [32]
  Count: 40.3
  Density: 80.5
  Relative Density: 107.3
Pythium [3]; [33]
  Count: 17.5
  Density: 35
  Relative Density: 71.4
Pythium [4]; [34]
  Count: 21
  Density: 25.9
  Relative Density: 69.2
Pythium [4]; [35]
  Count: 60
  Density: 74.4
  Relative Density: 96.4
  Vigor: 4.50
